# Reference: US20220362182A1, “METHODS FOR REVERSING HEPATIC STEATOSIS” (BRIGHTSEED, INC., priority 2020, published 2022)
# Entries after “also recorded” stand apart in the source; their conditions may differ.
# Key:
# estrogenic activity = assay: assay for estrogenic activity; assay type: cell-based; settings: false-positive counter assay
# PPARγ receptor = target: T1, PPARγ receptor (Homo sapiens, UniProt P37231); assay: assay for PPARγ agonist activity; assay type: cell-based; settings: false-positive counter assay
# T1 sequence (P37231 1-505): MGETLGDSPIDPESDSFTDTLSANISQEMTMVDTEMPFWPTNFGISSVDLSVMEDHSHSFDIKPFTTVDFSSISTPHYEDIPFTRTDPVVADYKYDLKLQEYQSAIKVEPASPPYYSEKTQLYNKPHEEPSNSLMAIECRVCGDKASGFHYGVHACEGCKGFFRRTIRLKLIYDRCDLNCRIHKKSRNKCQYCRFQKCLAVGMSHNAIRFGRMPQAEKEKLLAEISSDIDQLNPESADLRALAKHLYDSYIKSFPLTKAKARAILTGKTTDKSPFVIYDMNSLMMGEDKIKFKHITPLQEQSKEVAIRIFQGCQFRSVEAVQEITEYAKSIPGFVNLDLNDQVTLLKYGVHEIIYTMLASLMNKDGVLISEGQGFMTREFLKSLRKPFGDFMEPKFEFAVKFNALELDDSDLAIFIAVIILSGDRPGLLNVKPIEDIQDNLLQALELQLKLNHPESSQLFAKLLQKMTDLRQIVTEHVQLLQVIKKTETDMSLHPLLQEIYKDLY
# INS mRNA = assay: insulin mRNA qPCR in T6PNE cells; assay type: cell-based, human
# Protocol: Quantitative PCR (Q-PCR) from in vitro cell culture experiments used total RNA purified using RNeasy Kits (Qiagen). For liver tissue samples, total RNA was isolated using Trizol (Invitrogen) and prepared for RNAseq (mouse liver DMSO and NCT, N=3). cDNA was amplified using 3 μg of total RNA using qScript cDNA SuperMix (Quanta BioSciences, Beverly, Mass., USA). QPCR analysis was performed using SYBR® Select Master Mix (Applied Biosystems) and ABI 7900HT (Applied Biosystems, Thermo Fisher Scientific). The Ct values of mRNA expression were then normalized to the 18 s rRNA values and are expressed as fold change over samples from mice fed normal chow for in vivo experiments or DMSO controls for cell culture experiments.
# murine PK = settings: mouse, in vivo
# Protocol: Murine PK was conducted by WuXi AppTec (Shanghai, China). C57BL/6 male mice of age 7-9 weeks were obtained from SLAC Laboratory Animal Co (Shanghai, China). Mice were fasted for 12 h prior to compound administration. Oral gavage was used for PO dosing. For IV dosing, compound was administered by tail vein injection. For compound concentration determination, 25 μL of blood was collected from the submandibular or saphenous vein and processed for plasma. Plasma concentration of compound was determined by LC-MS/MS.
# HNF4α = target: T2, HNF4α (Homo sapiens, UniProt P41235); assay: T6PNE insulin promoter assay (human insulin promoter-GFP transgene); assay type: cell-based; design: endogenous in cells; host or cells: T6PNE cells; settings: T6PNE cells; for insulin promoter activity / HNF4α activation: GFP-positive cells relative to DMSO; for dose responsiveness in the INS promoter assay: multiple doses
# T2 sequence (P41235 1-474): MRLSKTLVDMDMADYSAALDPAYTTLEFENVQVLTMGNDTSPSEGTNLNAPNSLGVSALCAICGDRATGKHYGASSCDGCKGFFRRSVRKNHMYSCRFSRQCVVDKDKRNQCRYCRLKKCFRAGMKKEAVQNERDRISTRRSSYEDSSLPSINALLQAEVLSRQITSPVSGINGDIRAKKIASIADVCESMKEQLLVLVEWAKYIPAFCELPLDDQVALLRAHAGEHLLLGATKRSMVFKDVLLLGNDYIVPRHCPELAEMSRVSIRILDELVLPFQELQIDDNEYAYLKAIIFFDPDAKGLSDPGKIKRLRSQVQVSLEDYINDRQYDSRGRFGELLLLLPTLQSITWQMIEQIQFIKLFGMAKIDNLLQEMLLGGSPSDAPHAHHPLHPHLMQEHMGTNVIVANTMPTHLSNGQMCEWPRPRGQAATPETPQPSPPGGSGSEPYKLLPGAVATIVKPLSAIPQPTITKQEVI
# Protocol: The T6PNE insulin promoter assay has been described previously and was performed here with slight modifications as follows: T6PNE cells were seeded at 200 cells per well in 384-well tissue culture plates (Greiner Bio-One) in the presence of 0.5 μM tamoxifen. Compounds described herein in DMSO were dispensed with an Echo 555 Acoustic Liquid Handler (Beckman Coulter). Three days after compound addition, cells were fixed in 4% paraformaldehyde (USBio) for 15 min and stained with DAPI (0.167 μg/ml, Invitrogen). Blue (DAPI) and green (GFP) channels were imaged using a Celigo imaging cytometer (Nexcelom Bioscience). The number of GFPpositive cells was normalized to the DAPI-positive cell number and fold change calculated relative to the DMSO control.
# T6PNE cells were maintained in RPMI (5.5mM glucose, Corning) supplemented with 10% fetal bovine serum (FBS, Sigma-Aldrich) and 1% penicillin-streptomycin (pen-strep, Gibco). Cells were maintained in 5% CO2 at 37° C. For the insulin promoter assay, 0.5 μM tamoxifen (Sigma-Aldrich) was added to T6PNE cell culture media. HepG2 or HeLa cells were cultured in DMEM (high glucose, Corning) supplemented with 10% FBS and 1% pen-strep and maintained at 5% CO2, 37° C.
SMILES,estrogenic activity (estrogenic activity),PPARγ receptor agonist activity (PPARγ receptor),INS mRNA (INS mRNA),oral bioavailability (murine PK),insulin promoter activity / HNF4α activation (HNF4α),dose responsiveness in the INS promoter assay (HNF4α)
"COc1cc(/C=C/C(=O)NCCc2ccc(O)cc2)ccc1O [NFT, N-trans feruloyltyramine]",no estrogenic,no estrogenic or PPARγ receptor agonist activity,increased,poor oral bioavailability,more potent activators; also recorded: approximately as active as alverine; also recorded: much more potent,exhibited dose responsiveness
"O=C(/C=C/c1ccc(O)c(O)c1)NCCc1ccc(O)cc1 [NCT, N-trans-caffeoyltyramine]",no estrogenic,no estrogenic or PPARγ receptor agonist activity,increased,poor oral bioavailability,more potent activators; also recorded: strongest inducer of insulin promoter activity; also recorded: much more potent,exhibited dose responsiveness
